Legend:
GSK-3β (AA 1-420) = target: T1, GSK-3β (AA 1-420) (Homo sapiens, UniProt P49841); assay: Ki determination for the inhibition of GSK-3 (coupled enzyme system); type: biochemical; conditions: 20 μM ATP, 20 nM GSK-3β, 30° C.
T1 construct: GSK-3β (AA 1-420)
Outline: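 GSK-3β (AA 1-420, 20 nM) was run in a pyruvate kinase/LDH-coupled NADH assay in 100 mM HEPES pH 7.5, 10 mM MgCl2, 25 mM NaCl, 1 mM DTT, 1.5% DMSO, with 300 μM phosphopeptide substrate. Compound (0.002–30 μM) was preincubated 10 min at 30° C, then 20 μM ATP was added.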

Aurora-2 = target: T2, Aurora-2 (Homo sapiens, UniProt O14965); assay: Ki determination for the inhibition of Aurora-2 (coupled enzyme assay); type: biochemical; conditions: 70 nM Aurora-2, 30° C.
T2 sequence (O14965 1-403): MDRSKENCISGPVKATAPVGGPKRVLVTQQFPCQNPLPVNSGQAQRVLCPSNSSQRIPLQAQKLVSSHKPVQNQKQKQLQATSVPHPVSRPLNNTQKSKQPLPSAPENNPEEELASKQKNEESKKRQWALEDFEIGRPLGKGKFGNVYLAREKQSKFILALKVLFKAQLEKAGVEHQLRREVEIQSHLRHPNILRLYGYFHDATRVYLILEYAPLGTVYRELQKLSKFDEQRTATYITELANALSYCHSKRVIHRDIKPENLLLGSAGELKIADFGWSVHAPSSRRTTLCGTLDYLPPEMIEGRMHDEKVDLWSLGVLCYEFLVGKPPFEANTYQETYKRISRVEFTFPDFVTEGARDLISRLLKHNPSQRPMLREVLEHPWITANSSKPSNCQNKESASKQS
Description: Compounds were screened in the following manner for their ability to inhibit Aurora-2 using a standard coupled enzyme assay (Fox et al (1998) Protein Sci 7, 2249).
To an assay stock buffer solution containing 0.1M HEPES 7.5, 10 mM MgCl2, 1 mM DTT, 25 mM NaCl, 2.5 mM phosphoenolpyruvate, […], 30 mg/ml pyruvate kinase, 10 mg/ml lactate dehydrogenase, […], and 800 μM peptide (LRRASLG, American Peptide, Sunnyvale, Calif.) was added a DMSO solution of a compound of the present invention to a final concentration of 30 μM. The resulting mixture was incubated at 30° C. for 10 min. The reaction was initiated by the addition of 10 μL of Aurora-2 stock solution to give a final concentration of 70 nM in the assay. The rates of reaction were obtained by monitoring absorbance at 340 nm over a 5 minute read time at 30° C. using a BioRad Ultramark plate reader (Hercules, Calif.). The Ki values were determined from the rate data as a function of inhibitor concentration.

T1 sequence (P49841 whole entry, the tested form may be a part): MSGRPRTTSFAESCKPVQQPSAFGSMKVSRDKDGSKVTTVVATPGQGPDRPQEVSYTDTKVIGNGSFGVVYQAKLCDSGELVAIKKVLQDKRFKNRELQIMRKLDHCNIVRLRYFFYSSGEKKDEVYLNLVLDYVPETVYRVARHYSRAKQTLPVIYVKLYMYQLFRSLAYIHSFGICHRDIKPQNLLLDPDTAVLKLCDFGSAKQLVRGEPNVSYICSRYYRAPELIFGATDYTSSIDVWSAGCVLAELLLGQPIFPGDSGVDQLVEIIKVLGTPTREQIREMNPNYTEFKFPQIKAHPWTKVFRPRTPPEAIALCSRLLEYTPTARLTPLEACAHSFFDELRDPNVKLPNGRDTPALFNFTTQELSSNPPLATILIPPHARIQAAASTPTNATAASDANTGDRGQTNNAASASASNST

Compound	Ki (GSK-3β (AA 1-420)) [µM]	Ki (Aurora-2) [µM]	melting point [°C]
Cc1cc(Nc2nc(Sc3nccn3C)nc3ccccc23)n[nH]1 [IIa-10, [2-(1-Methylimidazol-2-ylsulfanyl)-quinazolin-4-yl]-(5-methyl-2H-pyrazol-3-yl)-amine]	1 to 7	1 to 10	255 to 256
Cc1cc(Nc2nc(Sc3ccc(F)cc3F)nc3ccccc23)n[nH]1 [IIa-12, [2-(2,4-Difluorophenylsulfanyl)-quinazolin-4-yl]-(5-methyl-2H-pyrazol-3-yl)-amine]	< 0.1	< 0.1	256 to 258
c1ccc2cc(Sc3nc4c(c(Nc5cc(C6CC6)[nH]n5)n3)CCCC4)ccc2c1 [IIa-29, (5-Cyclopropyl-2H-pyrazol-3-yl)-[2-(naphthalen-2-ylsulfanyl)-5,6,7,8-tetrahydroquinazolin-4-yl-]-amine]	0.1 to 1	< 0.1	244
c1ccc2[nH]c(Sc3nc(Nc4cc(C5CC5)[nH]n4)c4ccccc4n3)nc2c1 [IIa-34, [2-(Benzimidazol-2-ylsulfanyl)-quinazolin-4-yl]-(5-cyclopropyl-2H-pyrazol-3-yl)-amine]	0.1 to 1	< 0.1	201 to 203
Cc1cc(Nc2nc(Sc3ccc(C(=O)O)cc3)nc3ccccc23)[nH]n1 [IIa-43, [2-(4-Carboxyphenylsulfanyl)-quinazolin-4-yl]-(5-methyl-2H-pyrazol-3-yl)-amine]	< 0.1	< 0.1	263 to 265
CC(=O)Nc1ccc(Sc2nc(Nc3cc(C)[nH]n3)c3ccc(OCCCN(C)C)cc3n2)cc1 [IIa-75, [2-(4-Acetamidophenylsulfanyl)-7-(3-dimethylamino-propoxy)-quinazolin-4-yl]-(5-methyl-2H-pyrazol-3-yl)-amine]	–	< 0.1	249 to 250
Cc1cc(Nc2nc(Oc3ccc4ccccc4c3)nc3ccccc23)n[nH]1 [IIb-2, (5-Methyl-2H-pyrazol-3-yl)-[2-(naphthalen-2-yloxy)-quinazolin-4-yl]-amine]	–	< 0.1	> 300
COc1cccc(Oc2nc(Nc3cc(C)[nH]n3)c3ccccc3n2)c1 [IIb-6, [2-(3-Methoxyphenoxy)-quinazolin-4-yl]-(5-methyl-2H-pyrazol-3-yl)-amine]	–	< 0.1	277 to 278
c1ccc(CCNc2nc(Nc3cc(C4CC4)[nH]n3)c3ccccc3n2)cc1 [IIc-28, (5-Cyclopropyl-2H-pyrazol-3-yl)-(2-phenetylamino-quinazolin-4-yl)-amine]	0.1 to 1	< 0.1	–
c1ccc(-c2cccc(Nc3nc(Nc4cc(C5CC5)[nH]n4)c4ccccc4n3)c2)cc1 [IIc-46, [2-(Biphenyl-3-ylamino)-quinazolin-4-yl]-(5-cyclopropyl-2H-pyrazol-3-yl)-amine]	–	< 0.1	153
COc1ccc(Nc2nc(Nc3cc(C)[nH]n3)c3ccccc3n2)cc1-c1ccccc1 [IIc-58, [2-(2-Methoxybiphenyl-5-ylamino)-quinazolin-4-yl]-(5-methyl-2H-pyrazol-3-yl)-amine]	1 to 7	< 0.1	–
FC(F)(F)c1cccc(Nc2nc(Nc3n[nH]c4ccccc34)c3ccccc3n2)c1 [IIc-71, (1H-Indazol-3-yl)-[2-(3-trifluoromethylphenylamino)-quinazolin-4-yl]-amine]	1 to 7	1 to 10	–
Clc1ccccc1Nc1nc(Nc2n[nH]c3ccccc23)c2ccccc2n1 [IIc-75, [2-(2-Chloro-phenyl)-amino-quinazolin-4-yl]-(1H-indazol-3-yl)-amine]	0.1 to 1	1 to 10	–
FC(F)(F)c1ccccc1Nc1nc(Nc2n[nH]c3ccccc23)c2ccccc2n1 [IIc-76, (1H-Indazol-3-yl)-[2-(2-trifluoromethylphenylamino)-quinazolin-4-yl]-amine]	0.1 to 1	1 to 10	–
Cc1cc(Nc2nc(COc3ccc(Cl)cc3)nc3c2CCCC3)n[nH]1 [IId-6, [2-(4-Chlorophenoxymethyl)-5,6,7,8-tetrahydro-quinazolin-4-yl]-(5-methyl-2H-pyrazol-3-yl)-amine]	0.1 to 1	0.1 to 1	–

Now from value to compound:

Ki (GSK-3β (AA 1-420)) [µM]	Ki (Aurora-2) [µM]	melting point [°C]	Compound
1 to 7	1 to 10	219 to 222	CC(=O)Nc1ccc(Sc2nc(Nc3cc(C)n[nH]3)cc(-c3ccc(OCCCN(C)C)cc3)n2)cc1 [IIIa-43, {2-(4-Acetamido-phenyl-sulfanyl)-6-[4-(3-dimethylamino-propoxy)-phenyl]-pyrimidin-4-yl}-(5-methyl-2H-pyrazol-3-yl)-amine]
0.1 to 1	< 0.1	205 to 208	CCc1ccccc1Sc1nc(Nc2cc(C)[nH]n2)c2ccccc2n1 [IIa-5, [2-(2-Ethylphenylsulfanyl)-quinazolin-4-yl]-(5-methyl-2H-pyrazol-3-yl)-amine]
< 0.1	< 0.1	273 to 275	Cc1cc(Nc2nc(Sc3ccccc3O)nc3ccccc23)n[nH]1 [IIa-11, [2-(2-Hydroxyphenylsulfanyl)-quinazolin-4-yl]-(5-methyl-2H-pyrazol-3-yl)-amine]
< 0.1	< 0.1	224 to 225	COC(=O)c1cccc(Sc2nc(Nc3cc(C4CC4)[nH]n3)c3ccccc3n2)c1 [IIa-22, (5-Cyclopropyl-2H-pyrazol-3-yl)-[2-(3-methoxycarbonylphenylsulfanyl)-quinazolin-4-yl]-amine]
< 0.1	< 0.1	> 300	O=C(O)c1cccc(Sc2nc(Nc3cc(C4CC4)[nH]n3)c3ccccc3n2)c1 [IIa-26, [2-(3-Carboxyphenylsulfanyl)-quinazolin-4-yl]-(5-cyclopropyl-2H-pyrazol-3-yl)-amine]
0.1 to 1	< 0.1	245 to 246	COC(=O)c1ccc(Sc2nc(Nc3cc(C4CC4)[nH]n3)c3ccccc3n2)cc1 [IIa-35, (5-Cyclopropyl-2H-pyrazol-3-yl)-[2-(4-methoxycarbonylphenylsulfanyl)-quinazolin-4-yl]-amine]
0.1 to 1	< 0.1	262 to 264	CC(=O)Nc1ccc(Sc2nc(Nc3cc(C)[nH]n3)c3cccc(OCCCN4CCOCC4)c3n2)cc1 [IIa-41, [2-(4-Acetamidophenylsulfanyl)-8-(3-morpholin-4-yl-propoxy)-quinazolin-4-yl]-(5-methyl-2H-pyrazol-3-yl)-amine]
0.1 to 1	< 0.1	257 to 260	COC(=O)c1ccc(Sc2nc(Nc3cc(C)[nH]n3)c3ccccc3n2)cc1 [IIa-42, [2-(4-Methoxycarbonylphenylsulfanyl)-quinazolin-4-yl]-(5-methyl-2H-pyrazol-3-yl)-amine]
< 0.1	< 0.1	> 300	Cc1cc(Nc2nc(Sc3ccc(Br)cc3)nc3ccccc23)n[nH]1 [IIa-46, [2-(4-Bromophenylsulfanyl)-quinazolin-4-yl]-(5-methyl-2H-pyrazol-3-yl)-amine]
–	< 0.1	281 to 282	Cc1cc(Nc2nc(Sc3ccc(NC(=O)CC(C)C)cc3)nc3ccccc23)n[nH]1 [IIa-57, [2-(4-Isobutanecarbonylamino-phenylsulfanyl)-quinazolin-4-yl]-(5-methyl-2H-pyrazol-3-yl)-amine]
–	< 0.1	264 to 265	CC(=O)Nc1ccc(Sc2nc(Nc3cc(C)[nH]n3)c3ccc(N)cc3n2)cc1 [IIa-59, [2-(4-Acetamido-phenylsulfanyl)-7-aminoquinazolin-4-yl]-(5-methyl-2H-pyrazol-3-yl)-amine]
–	< 0.1	266 to 267	Cc1cc(Nc2nc(Sc3ccc(NC(=O)CN4CCOCC4)cc3)nc3ccccc23)n[nH]1 [IIa-60, (5-Methyl-2H-pyrazol-3-yl)-{2-[4-(2-morpholin-4-yl-acetylamino)-phenylsulfanyl]-quinazolin-4-yl}-amine]
–	< 0.1	170 to 172	CC(=O)Nc1ccc(Sc2nc(Nc3cc(C)[nH]n3)c3cccc(OCCCN(C)C)c3n2)cc1 [IIa-73, [2-(4-Acetamidophenylsulfanyl)-8-(3-dimethylamino-propoxy)-quinazolin-4-yl]-(5-methyl-2H-pyrazol-3-yl)-amine]
0.1 to 1	< 0.1	–	COc1cccc(Nc2nc(Nc3cc(C)[nH]n3)c3ccccc3n2)c1 [IIc-56, [2-(3-Methoxyphenylamino)-quinazolin-4-yl]-(5-methyl-2H-pyrazol-3-yl)-amine]
